Earlier results on 1 molecule are cited in patent publication EP2727592A1 (Kücükgüzel, Sükriye Güniz, priority 2012, dated 2014).

For data set [1] the following is noted: in vivo.
Experiment in data set [2]: not given
This is another data set of the same source.

As for `CC(=O)Nc1ccc(O)cc1` [PAR, 4-hydroxyacetanilide], the “time to reach the highest amount of plasma concentration” value (customary dose orally) was 90 min. For the same molecule, the Elimination half life (in vivo) was 3.3 h. For the same molecule, the Oral bioavailability (oral) was 63 - 89%. In data set [1], the eliminated without transformation is reported as 5%; the “turns into N-acetyl-p-benzoquinonimine (NAPQI) with oxidation” value is on record as 5%; the “turns into glucuronide and sulphate conjugate” value is reported as 90%. Also, the “dose leading to nausea, vomiting, stomach ache, then liver failure and acute liver necrosis” value in data set [2] (adults) is on record as “more than 10 g”. Besides, in data set [2] (children), the paediatric toxic dose was 200 mg/kg. Also, the “dose at which the fatality risk shall increase” value in data set [2] (taken in one go) is given as “over 20 g”.
